Patent US10166271B2, “Methods for promoting hair growth” (THE REGENTS OF THE UNIVERSITY OF CALIFORNIA, priority 2006, dated 2019)
“And” between values parts separate entries of the source, which are not always exact repeats. Identical values can stand only once.

Assays:
Assay type in all cases: in vivo
young CRF-OE mice = assay: Cyclic CRF antagonists, prevention of hair loss in young CRF-OE mice (Example 11); details: at least four weeks after the final administration
Text: Although mice are particularly described, one skilled in the art will appreciate that other laboratory animals and human subjects can be used, and doses adjusted accordingly (for example based on the weight of the subject, or the area to which the peptide is to be applied). Similarly, although particular modes of administration are described, one will appreciate that variations can be made (such as those disclosed herein and those known in the art).
Any method of administration can be used, including injection, transdermal/topical delivery, or combinations thereof.
In one example, therapeutic peptides are administered via injection. For example, mice can be injected subcutaneously or intraperitoneally with at least 0.05 μg, at least 0.5 μg, at least 5 μg, at least 50 μg, or at least 500 μg of one or more therapeutic peptides (for example 0.5-50 μg peptide, 0.5-10 μg peptide, or 5 μg peptide). The peptide can be administered in 0.1 ml sterile saline (or 5% mannitol) once per day for at least 5 consecutive days, such as at least 10 days, at least 30 days, or at least 60 days. […] As a negative control, CRF-OE mice receive saline alone (such as 10-100 μl) or 5 μg astressin 2B in 0.1 ml saline.
In another example, therapeutic peptides are administered topically or transdermally. […]

CRF-OE mice [1] = assay: Long-term hair growth after sc injection in alopecic female CRF-OE mice (Example 5); details: two female CRF-OE mice; sc 5 μg/day x 5 days; four months after the final injection
Experimental: Two female CRF-OE mice, which had fully developed alopecia, received a single daily subcutaneous injection of 5 μg astressin B (in 0.1 ml saline) in the back for five consecutive days. Four (4) months after the final injection, the growth of hair on the backs of both mice was scored 9 out of 10. Similarly, two out of four male CRF-OE mice received intraperitoneal injection of 5 μg astressin B for five consecutive days. Thus, the mice not only grew hair in a previously bald (or balding) region, but such hair was maintained for months without on-going treatment.

CRF-OE mice [2] = assay: Hair growth and skin pigmentation after ip injection in adult alopecic CRF-OE mice (Example 2); parameters: key to Back Hair Growth Score (BK) / Ventral Abdomen Hair Growth Score (VAb): hair growth score 0-10: 0 = no change in hair, 10 = full hair growth; key to Skin pigmentation (Pg) score: pigment score 0-10: 0 = bright pink skin, 10 = fully black; details: for Back Hair Growth Score (BK) / Skin pigmentation (Pg) score / Ventral Abdomen Hair Growth Score (VAb): adult male CRF-OE mice, individual mice and Ave.
Experimental: Hair growth in CRF-OE mice was assessed using the hair growth scale developed by Vegesna et al. […], 2002) modified to account for phenotypic differences between CRF-OE mice. Scores were made visually as well as using photographs of each mouse at a weekly interval. The degree of alopecia varied between individual CRF-OE mice; thus, the percent difference between the amount of hair present in the test area (described below) before and 4 weeks after treatment was converted to a score of 0-10. A zero score corresponded to a no change in the amount of hair in the test area and a score of 10 corresponded to full hair growth in the entire test area. The scale for monitoring hair growth in CRF-OE mice is more particularly described in Table 2.
Pigmentation of the skin (also referred to as skin color) in the test region was also measured because, in C57BL/6 mice, the skin darkens at the onset of hair growth. A pigmentation score from 0-10 was given to each mouse with a score of 0 corresponding to bright pink skin color/pigment in the entire test region, a score of 1-5 corresponding to increasing intensity of a pale greyish color/pigment of skin in the test region, a score of 6-9 corresponding to increasing but non-confluent darker color/pigment of skin in the test region, and a score of 10 corresponding to black pigmentation of the entire test region. Pigmentation was measured one week after the fifth and final injection because changes (if any) in pigmentation are substantially complete by that time.
CRF-OE mice (approximately 4 months old) with fully developed alopecia on their backs were injected intraperitoneally (ip) with equal volumes (0.1 ml) of either saline or astressin B (5 μg/mouse/day) for 5 consecutive days. Skin pigment score and hair growth (on the back) score were determined as described in Example 1. In addition, because adult CRF-OE mice also lose ventral abdomen hair, a ventral abdomen (Vab) hair growth score was determined. The area considered for scoring ventral abdomen hair growth was delineated, in the front (anteriorly), by a horizontal line across the tip of the xifoid process (distal sternum), in the rear (posteriorly), by a horizontal line joining the back of the thighs along the anus, and, laterally, by a straight line along the lateral side of the ventral abdomen on left and right sides.

[3] = ip 5 μg/mouse/day x 5 days, CRF-OE mice
[4] = ip 5 μg/mouse/day x 5 days, Before (Week 0), listed as AB
[5] = ip 5 μg/mouse/day x 5 days, Before (Week 0), listed as AB, mean
[6] = ip 5 μg/mouse/day x 5 days, Week 1, listed as AB
[7] = ip 5 μg/mouse/day x 5 days, Week 1, listed as AB, mean
[8] = ip 5 μg/mouse/day x 5 days, Week 8, listed as AB
[9] = ip 5 μg/mouse/day x 5 days, Week 8, listed as AB, mean

Substance: cyclo(31-34)[DPhe11, His12, CαMeLeu13,39, Nle17, Glu31, Lys34]Ac-Sau(8-40) [Astressin 2B, reference compound]
- Hair in the test area (young CRF-OE mice): ultimately develop alopecia in the test area

Substance: (cyclo 30-33)[DPhe12, Nle21,38, Cml27,40, Glu30, Lys33]Ac-h/rCRF9-41 [Astressin B]
- Growth of hair on the back, score out of 10 (CRF-OE mice [1]): 9
- Onset of dark skin pigment after the final injection (CRF-OE mice [2]; [3]): ≤ 3 days
- Time of darkest skin color / maximal pigment response after the final injection (CRF-OE mice [2]; [3]): 7 to 10 days
- Re-grown hair maintained / retained after the final ip injection (CRF-OE mice [2]; ip 5 μg/mouse/day x 5 days, CRF-OE mice, listed as astressin B): ≥ 8 weeks
- Re-grown hair maintained / retained after the final ip injection (CRF-OE mice [2]; ip 5 μg/mouse/day x 5 days, CRF-OE mice, listed as astressin-B): 8 weeks
- Back Hair Growth Score (BK) (CRF-OE mice [2]; [4]): 2 and 1 (3×)
- Skin pigmentation (Pg) score (CRF-OE mice [2]; [4]): 0.0
- Ventral Abdomen Hair Growth Score (VAb) (CRF-OE mice [2]; [4]): 5 (3×) and 2.5
- Back Hair Growth Score (BK) (CRF-OE mice [2]; [5]): 1.25
- Skin pigmentation (Pg) score (CRF-OE mice [2]; [5]): 0
- Ventral Abdomen Hair Growth Score (VAb) (CRF-OE mice [2]; [5]): 4.4
- Skin pigmentation (Pg) score (CRF-OE mice [2]; ip 5 μg/mouse/day x 5 days, Week 1): 10
- Back Hair Growth Score (BK) (CRF-OE mice [2]; [6]): 9.5 and 10 and 9 (2×)
- Ventral Abdomen Hair Growth Score (VAb) (CRF-OE mice [2]; [6]): 10 (2×) and 8 (2×)
- Back Hair Growth Score (BK) (CRF-OE mice [2]; [7]): 9.4
- Ventral Abdomen Hair Growth Score (VAb) (CRF-OE mice [2]; [7]): 9
- Ventral Abdomen Hair Growth Score (VAb) (CRF-OE mice [2]; ip 5 μg/mouse/day x 5 days, Week 4): 10
- Back Hair Growth Score (BK) (CRF-OE mice [2]; ip 5 μg/mouse/day x 5 days, Week 4, listed as AB): 10 (3×) and 9.5
- Back Hair Growth Score (BK) (CRF-OE mice [2]; ip 5 μg/mouse/day x 5 days, Week 4, listed as AB, mean): 9.9
- Ventral Abdomen Hair Growth Score (VAb) (CRF-OE mice [2]; ip 5 μg/mouse/day x 5 days, Week 4, mean): 10
- Back Hair Growth Score (BK) (CRF-OE mice [2]; [8]): 10 and 9.5 and 8.5 and 8
- Ventral Abdomen Hair Growth Score (VAb) (CRF-OE mice [2]; [8]): 10 (2×) and 8 (2×)
- Back Hair Growth Score (BK) (CRF-OE mice [2]; [9]): 9
- Ventral Abdomen Hair Growth Score (VAb) (CRF-OE mice [2]; [9]): 9
- Hair coverage (CRF-OE mice [2]; ip 5 μg/mouse/day x 5 days, at 2 weeks, four-month old male CRF-OE mice): 95-100%
- Re-grown hair largely maintained after the last ip injection (CRF-OE mice [2]; ip 5 μg/mouse/day x 5 days, four-month old male CRF-OE mice): up to 16 weeks
- Hair growth score (fully grown hair) (CRF-OE mice [2]; ip, four and seven weeks after the final injection, all mice): 9-10
- Mice with dark skin (CRF-OE mice [2]; ip, one week after the final injection, fraction of mice): 4/4
